Measured values: patent US20250340538A1, “IMIDAZOLONE DERIVATIVES AS INHIBITORS OF PROTEIN KINASES IN PARTICULAR DYRK1A, CLK1 AND/OR CLK4” (PERHA PHARMACEUTICALS, priority 2021, published 2025)
Read-outs that look alike come from different tables or passages of the source.

Columns and labels:
Type in all cases: biochemical
[1] = target: T1, CLK1 (Homo sapiens, UniProt P49759); experiment: Radiometric protein kinase assay (33PanQinase Activity Assay), CLK1; conditions: read-out: Potency Class CLK1
T1 construct: GST-fusion or His-tag (not specified per kinase); purchased ProQinase GmbH; host or cells: Sf9 insect cells or E. coli (not specified per kinase)
In short: (§1)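 Recombinant human kinases (GST- or His-tagged, full-length or active fragments, from Sf9 or E. coli) were run in the radiometric 33PanQinase assay with [γ-33P]-ATP. Compounds were tested at 10 concentrations from 10 μM to 30 nM in 1% DMSO, incubated 60 min at 30 °C, and IC50 derived from dose-response curves.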

[2] = target: T2, CLK4 (Homo sapiens, UniProt Q9HAZ1); experiment: Radiometric protein kinase assay (33PanQinase Activity Assay), CLK4; conditions: read-out: IC50 on CLK4 (most potent CLK4 inhibitors)
T2 construct: GST-fusion or His-tag (not specified per kinase); purchased ProQinase GmbH; host or cells: Sf9 insect cells or E. coli (not specified per kinase)
In short: as §1

[3] = target: T3, DYRK4 (Homo sapiens, UniProt Q9NR20); experiment: Radiometric protein kinase assay (33PanQinase Activity Assay), DYRK4; conditions: read-out: IC50 on DYRK4 (most potent DYRK4 inhibitors)
T3 construct: GST-fusion or His-tag (not specified per kinase); purchased ProQinase GmbH; host or cells: Sf9 insect cells or E. coli (not specified per kinase)
T3 sequence (Q9NR20 1-520): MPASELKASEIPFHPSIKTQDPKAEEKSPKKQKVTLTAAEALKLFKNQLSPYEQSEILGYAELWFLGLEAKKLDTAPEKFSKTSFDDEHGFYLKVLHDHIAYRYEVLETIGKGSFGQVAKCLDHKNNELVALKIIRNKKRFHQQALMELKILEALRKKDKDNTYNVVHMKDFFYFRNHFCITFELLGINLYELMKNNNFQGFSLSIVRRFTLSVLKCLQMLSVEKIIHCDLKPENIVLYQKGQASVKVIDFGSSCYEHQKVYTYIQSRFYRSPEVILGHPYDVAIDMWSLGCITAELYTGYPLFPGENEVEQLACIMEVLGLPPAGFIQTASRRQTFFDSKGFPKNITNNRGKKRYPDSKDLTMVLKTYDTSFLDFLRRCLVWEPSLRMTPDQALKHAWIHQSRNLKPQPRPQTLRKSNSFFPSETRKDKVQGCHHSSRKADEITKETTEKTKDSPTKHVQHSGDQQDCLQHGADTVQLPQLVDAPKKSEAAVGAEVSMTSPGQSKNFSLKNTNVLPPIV
Experimental: (§2) Assays were performed by ProQinase GmbH (Engesserstr. 4, D-79108 Freiburg, Germany. www.proqinase.com). The IC50 profile of all compounds was determined using 12 protein kinases (CDK2/cyclin E, CK1ε, CLK1, 2, 3, 4, DYRK1A, 1B, 2, 3, 4, GSK3β).
(§3) The compounds were provided as […] in 100% DMSO. Prior to testing, the 1 μM stock solutions were subjected to a serial, semi-logarithmic dilution using 100% DMSO as a solvent. […] In the process, 90 μl H2O were added to each well of each compound dilution plate. To minimize potential precipitation, the H2O was added to each plate only a few minutes before the transfer of the compound solutions into the assay plates. The plate was shaken thoroughly, resulting in a compound dilution plate/10% DMSO.
For the assays (see below), 5 μL solution from each well of the compound dilution plates/10% DMSO were transferred into the assay plates. The final volume of the assay was 50 μL. All compounds were tested at 10 final assay concentrations in the range from 10 μM to 30 nM. The final DMSO concentration in the reaction cocktails was 1% in all cases. […]
The reaction cocktails were incubated at 30° C. for 60 minutes. […] Incorporation of ^33Pi was determined with a microplate scintillation counter (Microbeta, Wallac). The IC50 values for all compounds were calculated from the dose response curves […]

[4] = target: T4, DYRK3 (Homo sapiens, UniProt O43781); experiment: Radiometric protein kinase assay (33PanQinase Activity Assay), DYRK3; conditions: read-out: IC50 on DYRK3 (most potent DYRK3 inhibitors)
T4 construct: GST-fusion or His-tag (not specified per kinase); purchased ProQinase GmbH; host or cells: Sf9 insect cells or E. coli (not specified per kinase)
T4 sequence (O43781 1-588): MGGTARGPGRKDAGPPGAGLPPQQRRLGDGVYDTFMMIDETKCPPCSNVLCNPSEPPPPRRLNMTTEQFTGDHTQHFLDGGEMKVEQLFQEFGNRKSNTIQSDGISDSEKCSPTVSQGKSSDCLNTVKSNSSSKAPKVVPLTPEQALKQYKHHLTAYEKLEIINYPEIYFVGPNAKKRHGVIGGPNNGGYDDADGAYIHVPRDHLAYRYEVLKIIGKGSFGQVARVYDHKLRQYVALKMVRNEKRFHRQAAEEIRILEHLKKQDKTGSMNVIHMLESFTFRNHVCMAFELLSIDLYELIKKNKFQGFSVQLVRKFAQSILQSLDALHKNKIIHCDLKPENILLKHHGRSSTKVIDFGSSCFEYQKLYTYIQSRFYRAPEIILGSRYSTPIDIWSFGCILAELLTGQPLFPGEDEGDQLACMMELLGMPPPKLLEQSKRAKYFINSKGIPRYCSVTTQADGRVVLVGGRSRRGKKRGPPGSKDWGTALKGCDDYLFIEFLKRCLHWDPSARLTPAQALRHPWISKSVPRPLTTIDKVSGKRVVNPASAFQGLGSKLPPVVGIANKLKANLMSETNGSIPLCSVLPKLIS
Experimental: as §2, §3
For the assays (see below), 5 μL solution from each well of the compound dilution plates/10% DMSO were transferred into the assay plates. The final volume of the assay was 50 μL. All compounds were tested at 10 final assay concentrations in the range from 10 μM to 30 nM. The final DMSO concentration in the reaction cocktails was 1% in all cases.
All protein kinases provided by ProQinase were expressed in Sf9 insect cells or in E. coli as recombinant GST-fusion proteins or His-tagged proteins, either as full-length or enzymatically active fragments. All kinases were produced from human cDNAs and purified by either GSH-affinity chromatography or immobilized metal. Affinity tags were removed from a number of kinases during purification. The purity of the protein kinases was examined by SDS-PAGE/Coomassie staining, the identity was checked by mass spectroscopy.
A radiometric protein kinase assay (33PanQinase® Activity Assay) was used for measuring the kinase activity of the 12 protein kinases. All kinase assays were performed in 96-well FlashPlates™ from PerkinElmer (Boston, MA, USA) in a 50 μL reaction volume. The reaction cocktail was pipetted in four steps in the following order: • 25 μL of assay buffer (standard buffer/[γ-^33P]-ATP), • 10 μL of ATP solution (in H2O), • 5 μL of test compound (in 10% DMSO), • 10 μL of enzyme/substrate mixture.
The reaction cocktails were incubated at 30° C. for 60 minutes. The reaction was stopped with 50 μL of 2% (v/v) H3PO4, plates were aspirated and washed two times with 200 μL 0.9% (w/v) NaCl. Incorporation of ^33Pi was determined with a microplate scintillation counter (Microbeta, Wallac). The IC50 values for all compounds were calculated from the dose response curves
As a parameter for assay quality, the Z′-factor (Zhang et al., J. Biomol. Screen. 2: 67-73, 1999) for the low and high controls of each assay plate (n=8) was used. ProQinase's criterion for repetition of an assay plate is a Z′-factor below 0.4 (Iversen et al., J. Biomol. Screen. 3: 247-252, 2006).

[5] = target: T5, DYRK1A (Homo sapiens, UniProt Q13627); experiment: Radiometric protein kinase assay (33PanQinase Activity Assay), DYRK1A
T5 construct: GST-fusion or His-tag (not specified per kinase); purchased ProQinase GmbH; host or cells: Sf9 insect cells or E. coli (not specified per kinase)
In short: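 Recombinant human kinase, expressed in Sf9 or E. coli, in a radiometric [γ-33P]-ATP assay at 30 °C for 60 min. Compounds tested at 10 concentrations from 10 μM to 30 nM, 1% DMSO final. 33Pi incorporation measured by scintillation counting; IC50 from dose-response curves.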

[6] = target: T6, CLK2 (Homo sapiens, UniProt P49760); experiment: Radiometric protein kinase assay (33PanQinase Activity Assay), CLK2; conditions: read-out: IC50 on CLK2 (most potent CLK2 inhibitors)
T6 construct: GST-fusion or His-tag (not specified per kinase); purchased ProQinase GmbH; host or cells: Sf9 insect cells or E. coli (not specified per kinase)
In short: as §1

T1 sequence (P49759 whole entry, the tested form may be a part): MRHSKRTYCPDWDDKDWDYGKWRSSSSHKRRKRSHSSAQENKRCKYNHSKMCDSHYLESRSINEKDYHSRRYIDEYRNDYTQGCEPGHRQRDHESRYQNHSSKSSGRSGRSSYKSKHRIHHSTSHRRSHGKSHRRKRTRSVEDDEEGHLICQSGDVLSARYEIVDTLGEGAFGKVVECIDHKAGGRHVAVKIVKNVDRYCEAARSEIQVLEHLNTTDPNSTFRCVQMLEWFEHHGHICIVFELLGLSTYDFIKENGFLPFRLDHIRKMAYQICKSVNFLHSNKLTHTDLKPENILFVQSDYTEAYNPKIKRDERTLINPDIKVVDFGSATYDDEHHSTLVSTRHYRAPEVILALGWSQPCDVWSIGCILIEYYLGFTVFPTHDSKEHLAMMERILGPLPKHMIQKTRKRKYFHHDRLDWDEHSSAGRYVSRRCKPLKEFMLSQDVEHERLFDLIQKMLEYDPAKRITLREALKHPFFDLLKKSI
T2 sequence (Q9HAZ1 whole entry, the tested form may be a part): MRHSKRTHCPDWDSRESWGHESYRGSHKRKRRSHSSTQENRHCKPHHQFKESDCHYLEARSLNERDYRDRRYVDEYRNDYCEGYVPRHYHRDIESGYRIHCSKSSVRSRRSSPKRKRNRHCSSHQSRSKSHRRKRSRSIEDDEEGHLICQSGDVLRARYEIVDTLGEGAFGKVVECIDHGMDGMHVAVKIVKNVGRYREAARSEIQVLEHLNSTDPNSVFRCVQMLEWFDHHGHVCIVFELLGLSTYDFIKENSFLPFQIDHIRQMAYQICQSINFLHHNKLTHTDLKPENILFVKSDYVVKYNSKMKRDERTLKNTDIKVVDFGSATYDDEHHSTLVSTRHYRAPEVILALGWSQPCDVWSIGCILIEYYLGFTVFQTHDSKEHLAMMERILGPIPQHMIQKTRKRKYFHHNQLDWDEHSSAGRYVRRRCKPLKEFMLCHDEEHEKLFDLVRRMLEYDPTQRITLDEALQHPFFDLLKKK
T6 sequence (P49760 whole entry, the tested form may be a part): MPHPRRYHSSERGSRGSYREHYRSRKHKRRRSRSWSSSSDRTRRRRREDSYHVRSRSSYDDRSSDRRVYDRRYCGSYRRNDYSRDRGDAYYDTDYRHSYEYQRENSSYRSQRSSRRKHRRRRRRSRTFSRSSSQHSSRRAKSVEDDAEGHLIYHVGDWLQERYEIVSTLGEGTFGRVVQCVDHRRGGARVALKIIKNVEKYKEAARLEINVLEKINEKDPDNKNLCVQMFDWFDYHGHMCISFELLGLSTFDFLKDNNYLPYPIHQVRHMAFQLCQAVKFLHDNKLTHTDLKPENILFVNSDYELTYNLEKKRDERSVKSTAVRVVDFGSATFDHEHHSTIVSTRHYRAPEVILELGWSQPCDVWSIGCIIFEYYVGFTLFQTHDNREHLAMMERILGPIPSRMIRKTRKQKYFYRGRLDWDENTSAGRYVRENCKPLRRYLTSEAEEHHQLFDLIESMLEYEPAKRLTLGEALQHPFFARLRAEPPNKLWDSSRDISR

IC50 ([1]; IC50 class A to E): 10 to 25 nM
IC50 ([1]; class by IC50 on CLK1, from dose-response curves): 10 to 25 nM
IC50 [2]: ≤ 10 nM
IC50 [3]: ≤ 300 nM
IC50 [4]: ≤ 250 nM
IC50 ([5]; IC50 class A to E, read-out: Potency Class DYRK1A): ≤ 5 nM
IC50 ([5]; class by IC50 on DYRK1A, from dose-response curves, read-out: Potency Class DYRK1A): < 5 nM
Selectivity Class DYRK1A vs. CLK1 ([5]; ratio of IC50 on CLK1 over IC50 on DYRK1A): II (ratio between 2 and 10 fold)
Selectivity Class DYRK1A vs. DYRK1B ([5]; ratio of IC50 on DYRK1B over IC50 on DYRK1A): II (ratio between 2 and 10 fold)
IC50 ([5]; read-out: IC50 on DYRK1A (most potent DYRK1A inhibitors)): ≤ 10 nM
IC50 [6]: ≤ 100 nM
SMILES: O=C1NC(NC23CC4CC(CC(O)(C4)C2)C3)=N/C1=C\c1ccc2ncccc2c1 [Compound 50, (4Z)-2-[(3-hydroxy-1-adamantyl)amino]-4-(6-quinolylmethylene)-1H-imidazol-5-one]
